Like-named read-outs stand apart in the source and are kept apart here.
What was measured:
[1] = biological target: GDP-bound KRAS wild-type protein (Homo sapiens, UniProt P01116); assay: Binding to KRAS by surface plasmon resonance (SPR), Single Cycle Kinetics
[2] = biological target: GDP-bound NRAS wild-type protein (Homo sapiens, UniProt P01111); assay: Binding to NRAS by surface plasmon resonance (SPR), Single Cycle Kinetics; conditions: for NRAS/KRAS (ratio of KD value for NRAS to KD value for KRAS): GDP-bound NRAS wild-type protein vs GDP-bound KRAS wild-type protein; for NRAS/KRAS (ratio of KD value with respect to GDP-bound NRAS wild-type protein to KD value with respect to KRAS): SPR KD ratio NRAS/KRAS, class symbols
[3] = biological target: GDP-bound HRAS wild-type protein (Homo sapiens, UniProt P01112); assay: Binding to HRAS by surface plasmon resonance (SPR), Single Cycle Kinetics; conditions: for HRAS/KRAS (ratio of KD value for HRAS to KD value for KRAS): GDP-bound HRAS wild-type protein vs GDP-bound KRAS wild-type protein; for HRAS/KRAS (ratio of KD value with respect to GDP-bound HRAS wild-type protein to KD value with respect to KRAS): SPR KD ratio HRAS/KRAS, class symbols
[4] = tested on: human lung cancer strain NCI-H441;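 also: cell proliferation inhibition after four days measured by CellTiter-Glo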
[5] = SPR, Single Cycle Kinetics, GDP-bound KRAS wild-type protein, read-out: KRAS KD
[6] = SPR, Single Cycle Kinetics, 1:1 binding model, GDP-bound KRAS wild-type protein, read-out: KRAS KD
[7] = SPR Single Cycle Kinetics, GDP-bound KRAS wild-type protein, 1:1 binding model, read-out: KRAS KD

Sequence of GDP-bound KRAS wild-type protein (P01116 whole entry): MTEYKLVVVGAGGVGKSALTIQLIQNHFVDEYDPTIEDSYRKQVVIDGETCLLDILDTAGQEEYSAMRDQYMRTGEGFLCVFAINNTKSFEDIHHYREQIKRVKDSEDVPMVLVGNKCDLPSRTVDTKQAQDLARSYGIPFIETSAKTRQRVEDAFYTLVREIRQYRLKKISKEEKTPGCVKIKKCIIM
Sequence of GDP-bound NRAS wild-type protein (P01111 whole entry): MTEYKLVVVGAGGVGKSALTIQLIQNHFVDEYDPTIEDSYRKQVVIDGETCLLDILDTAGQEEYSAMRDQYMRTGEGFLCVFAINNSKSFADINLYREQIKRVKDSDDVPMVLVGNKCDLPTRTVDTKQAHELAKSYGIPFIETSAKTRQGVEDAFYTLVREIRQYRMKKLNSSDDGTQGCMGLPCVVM
Sequence of GDP-bound HRAS wild-type protein (P01112 whole entry): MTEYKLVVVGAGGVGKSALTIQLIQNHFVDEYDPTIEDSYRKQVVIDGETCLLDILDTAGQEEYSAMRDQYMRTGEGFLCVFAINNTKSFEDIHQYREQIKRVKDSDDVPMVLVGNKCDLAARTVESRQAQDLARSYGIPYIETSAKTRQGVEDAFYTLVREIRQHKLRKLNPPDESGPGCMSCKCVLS

| Kd [1, 5] [nM] | IC50 [4] [nM] | Kd [1, 7] [nM] | SMILES | NRAS/KRAS (ratio of KD value for NRAS to KD value for KRAS) ([2]; SPR) | HRAS/KRAS (ratio of KD value for HRAS to KD value for KRAS) ([3]; SPR) | NRAS/KRAS (ratio of KD value with respect to GDP-bound NRAS wild-type protein to KD value with respect to KRAS) [2] | HRAS/KRAS (ratio of KD value with respect to GDP-bound HRAS wild-type protein to KD value with respect to KRAS) [3] | other results |
| --- | --- | --- | --- | --- | --- | --- | --- | --- |
| 0.12 | 52.3 |  | CCO[C@@H]1C[C@H]2C(=O)NC3(CCC3)C(=O)N(C)[C@@H](C3CCCC3)C(=O)N(C)[C@H](C(=O)N3CCOCC3)CC(=O)N(C)[C@@H](Cc3ccc(C#N)cc3)C(=O)N[C@@H]([C@@H](C)CC)C(=O)N(C)CC(=O)N(C)[C@H]3CCCCCN(C3=O)[C@@H](Cc3ccc(F)cc3)C(=O)N(C)CC(=O)N[C@@H](CCc3cc(F)c(C(F)(F)F)c(F)c3)C(=O)N2C1 [PP1187] | B (a compound having 3 or more and less than 10 is denoted as B) | B (a compound having 3 or more and less than 10 is denoted as B) |  |  |  |
|  | 498 |  | CC[C@H](C)[C@@H]1NC(=O)[C@H](CC2CC2)N(C)C(=O)C[C@@H](C)N(C)C(=O)[C@H](C2CCCC2)N(C)C(=O)C2(CCC2)NC(=O)[C@H](CCC(F)F)N(C)C(=O)[C@H](CCc2cc(F)c(C(F)(F)F)c(F)c2)NC(=O)CN(C)C(=O)[C@H](Cc2ccc(C(F)(F)F)cc2)N2CC/C=C\C[C@@H](C2=O)N(C)C(=O)CN(C)C1=O [PP1404] |  |  |  |  | Kd [1, 6]: 4.8 nM; NRAS/KRAS (ratio of KD value for NRAS to KD value for KRAS) ([2]; SPR, KD ratio class): A (a compound having 10 or more and less than 20 is denoted as A); HRAS/KRAS (ratio of KD value for HRAS to KD value for KRAS) ([3]; SPR, KD ratio class): A (a compound having 10 or more and less than 20 is denoted as A) |
| 0.063 | 33.7 |  | CCO[C@@H]1C[C@H]2C(=O)NC3(CCC3)C(=O)N(C)[C@@H](C3CCCC3)C(=O)N(C)[C@H](C(=O)N(C)C)CC(=O)N(C)[C@@H](Cc3cccc(C#N)c3)C(=O)N[C@@H]([C@@H](C)CC)C(=O)N(C)CC(=O)N(C)[C@H]3CCCCCN(C3=O)[C@@H](Cc3ccc(F)cc3)C(=O)N(C)CC(=O)N[C@@H](CCc3cc(F)c(C(F)(F)F)c(F)c3)C(=O)N2C1 [PP1156] | B (a compound having 3 or more and less than 10 is denoted as B) | B (a compound having 3 or more and less than 10 is denoted as B) |  |  |  |
| 0.3 | 15.9 |  | CCCO[C@H](C)[C@@H]1NC(=O)[C@H](CC(C)C)N(C)C(=O)C[C@@H](C(=O)N(C)CC)N(C)C(=O)[C@H](C2CCCC2)N(C)C(=O)C2(CC(C)(C)C2)NC(=O)[C@@H]2C[C@H](C)CN2C(=O)[C@H](CCc2cc(F)c(C(F)(F)F)c(F)c2)NC(=O)CN(C)C(=O)[C@H](Cc2ccc(C)cc2)N2CC/C=C\C[C@@H](C2=O)N(C)C(=O)CN(C)C1=O [PP2417] | A (a compound having 10 or more and less than 20 is denoted as A) | A (a compound having 10 or more and less than 20 is denoted as A) |  |  |  |
|  | 14.7 |  | CCO[C@@H]1C[C@H]2C(=O)NC3(CCC3)C(=O)N(C)[C@@H](C3CCCC3)C(=O)N(C)[C@H](C(=O)N3CCCC3)CC(=O)N(C)[C@@H](CC3CC3)C(=O)N[C@@H]([C@@H](C)CC)C(=O)N(C)CC(=O)N(C)[C@H]3C/C=C\CCN(C3=O)[C@@H](Cc3ccc(C(F)(F)F)cc3)C(=O)N(C)CC(=O)N[C@@H](CCc3cc(F)c(C(F)(F)F)c(F)c3)C(=O)N2C1 [PP1296] |  |  |  |  | Kd [1, 6]: 0.12 nM; NRAS/KRAS (ratio of KD value for NRAS to KD value for KRAS) ([2]; SPR, KD ratio class): AA (a compound having 20 or more is denoted as AA); HRAS/KRAS (ratio of KD value for HRAS to KD value for KRAS) ([3]; SPR, KD ratio class): A (a compound having 10 or more and less than 20 is denoted as A) |
|  | 69.5 | 1.4 | CC[C@H](C)[C@@H]1NC(=O)[C@H](COC)N(C)C(=O)C[C@@H](C(=O)N(C)C)N(C)C(=O)[C@H](C2CCCC2)N(C)C(=O)C2(CC(C)(C)C2)NC(=O)[C@@H]2C[C@@H](OC3CCC3)CN2C(=O)[C@H](CCc2cc(F)c(C(F)(F)F)c(F)c2)NC(=O)CN(C)C(=O)[C@H](CC2CCCCC2)N2CC/C=C\C[C@@H](C2=O)N(C)C(=O)CN(C2CC2)C1=O [PP2618] |  |  | A (a compound having 10 or more and less than 20 is denoted as A) | A (a compound having 10 or more and less than 20 is denoted as A) |  |
| 1.8 | 180 |  | CCCOC[C@H]1C(=O)N[C@@H]([C@@H](C)CC)C(=O)N(C)CC(=O)N(C)[C@H]2C/C=C\CCN(C2=O)[C@@H](CC2CCCCC2)C(=O)N(C)CC(=O)N[C@@H](CCc2cc(F)c(C(F)(F)F)c(F)c2)C(=O)N2C[C@H](OCC)C[C@H]2C(=O)NC2(CC(C)(C)C2)C(=O)N(C)[C@@H](C(CC)CC)C(=O)N(C)[C@H](C(=O)N(C)C)CC(=O)N1C [PP2501] | AA (a compound having 20 or more is denoted as AA) | A (a compound having 10 or more and less than 20 is denoted as A) |  |  |  |
|  | 95.2 | 2.6 | CCC(CC)[C@H]1C(=O)N(C)[C@H](C(=O)N(C)C)CC(=O)N(C)[C@@H](COC)C(=O)N[C@@H]([C@@H](C)CC)C(=O)N(C2CC2)CC(=O)N(C)[C@H]2C/C=C\CCN(C2=O)[C@@H](CC2CCC(F)(F)CC2)C(=O)N(C)CC(=O)N[C@@H](CCc2cc(F)c(C(F)(F)F)c(F)c2)C(=O)N2C[C@H](OC3CCCC3)C[C@H]2C(=O)NC2(CC(C)(C)C2)C(=O)N1C [PP2627] |  |  | A (a compound having 10 or more and less than 20 is denoted as A) | A (a compound having 10 or more and less than 20 is denoted as A) |  |
| 0.051 | 4.7 |  | CCOC[C@H]1C(=O)N[C@@H]([C@@H](C)CC)C(=O)N(C)CC(=O)N(C)[C@H]2C/C=C\CCN(C2=O)[C@@H](Cc2ccc(C)cc2)C(=O)N(C)CC(=O)N[C@@H](CCc2cc(F)c(C(F)(F)F)c(F)c2)C(=O)N2C[C@H](OCC)C[C@H]2C(=O)NC2(CC(C)(C)C2)C(=O)N(C)[C@@H](C2CCCC2)C(=O)N(C)[C@H](C(=O)N(C)C)CC(=O)N1C [PP2397] | A (a compound having 10 or more and less than 20 is denoted as A) | A (a compound having 10 or more and less than 20 is denoted as A) |  |  |  |
|  | 144 | 4.1 | CCC[C@H]1C(=O)N[C@@H](CC(C)C)C(=O)N(C2CC2)CC(=O)N(C)[C@H]2C/C=C\CCN(C2=O)[C@@H](Cc2ccc(C)cc2)C(=O)N(C)CC(=O)N[C@@H](CCc2cc(F)c(C(F)(F)F)c(F)c2)C(=O)N2C[C@H](OCC)C[C@H]2C(=O)NC2(CCC2)C(=O)N(C)[C@@H](C2CCCC2)C(=O)N(C)[C@H](C(=O)N(C)C)CC(=O)N1C [PP2532] |  |  | A (a compound having 10 or more and less than 20 is denoted as A) | B (a compound having 3 or more and less than 10 is denoted as B) |  |
| 0.55 | 30.5 |  | CCC[C@H]1C(=O)N[C@@H]([C@@H](C)CC)C(=O)N(C)CC(=O)N(C)[C@H]2C/C=C\CCN(C2=O)[C@@H](CC2CCC(F)(F)CC2)C(=O)N(C)CC(=O)N[C@@H](CCc2cc(F)c(C(F)(F)F)c(F)c2)C(=O)N2C[C@H](OCC)C[C@H]2C(=O)NC2(CC(C)(C)C2)C(=O)N(C)[C@@H](C(CC)CC)C(=O)N(C)[C@H](C(=O)N(C)C)CC(=O)N1C [PP2489] | A (a compound having 10 or more and less than 20 is denoted as A) | A (a compound having 10 or more and less than 20 is denoted as A) |  |  |  |
|  | 103 | 0.91 | CCC[C@H]1C(=O)N[C@@H]([C@@H](C)CC)C(=O)N(C2CC2)CC(=O)N(C)[C@H]2C/C=C\CCN(C2=O)[C@@H](Cc2ccc(C)cc2)C(=O)N(C)CC(=O)N[C@@H](CCc2ccc(Cl)c(Cl)c2)C(=O)N2C[C@H](OCC)C[C@H]2C(=O)NC2(CC(C)(C)C2)C(=O)N(C)[C@@H](C2CCCC2)C(=O)N(C)[C@H](C(=O)N(C)C)CC(=O)N1C [PP2559] |  |  | A (a compound having 10 or more and less than 20 is denoted as A) | A (a compound having 10 or more and less than 20 is denoted as A) |  |

| SMILES | Kd [1, 5] [nM] | IC50 [4] [nM] | Kd [1, 7] [nM] | NRAS/KRAS (ratio of KD value for NRAS to KD value for KRAS) ([2]; SPR) | HRAS/KRAS (ratio of KD value for HRAS to KD value for KRAS) ([3]; SPR) | NRAS/KRAS (ratio of KD value with respect to GDP-bound NRAS wild-type protein to KD value with respect to KRAS) [2] | HRAS/KRAS (ratio of KD value with respect to GDP-bound HRAS wild-type protein to KD value with respect to KRAS) [3] | other results |
| --- | --- | --- | --- | --- | --- | --- | --- | --- |
| CCC[C@H]1C(=O)N[C@@H]([C@@H](C)CC)C(=O)N2CCC[C@H]2C(=O)N(C)[C@H]2C/C=C\CCN(C2=O)[C@@H](Cc2ccc(C(F)(F)F)cc2)C(=O)N(C)CC(=O)N[C@@H](CCc2cc(F)c(C(F)(F)F)c(F)c2)C(=O)N2C[C@H](OCC)C[C@H]2C(=O)N(C)C2(CCC2)C(=O)N(C)[C@@H](C2CCCC2)C(=O)N(C)[C@H](C(=O)N2CCCCC2)CC(=O)N1C [PP3114] | 4.5 |  |  | AA (a compound having 20 or more is denoted as AA) | A (a compound having 10 or more and less than 20 is denoted as A) |  |  | Kd ([1]; SPR, Single Cycle Kinetics, 1:1 binding model, read-out: KD value with respect to GDP-bound KRAS wild-type protein): 4.5 nM; ratio of the KD value with respect to GDP-bound NRAS wild-type protein to the KD value with respect to KRAS ([2]; SPR, KD(NRAS)/KD(KRAS)): AA (a compound having 20 or more is denoted as AA); ratio of the KD value with respect to GDP-bound HRAS wild-type protein to the KD value with respect to KRAS ([3]; SPR, KD(HRAS)/KD(KRAS)): A (a compound having 10 or more and less than 20 is denoted as A); IC50 ([4]; read-out: NCI-H441 cell proliferation inhibitory activity, 50% proliferation inhibitory concentration (IC50 value), NCI-H441, four days, CellTiter-Glo): 14.7 nM |

Source: patent US20240158446A1, “CYCLIC COMPOUND HAVING SELECTIVE INHIBITORY ACTION ON KRAS OVER HRAS AND NRAS” (CHUGAI SEIYAKU KABUSHIKI KAISHA, priority 2021, published 2024)
